Test results reported in publication PMC3119665, “A New Drug Design Targeting the Adenosinergic System for Huntington's Disease” (PLoS ONE, 2011).

Experiments:
Assay in all cases: Radioligand binding panel (Table S1)
Conditions in all cases: 10 μM T1-11, n 2
Calcium Channel N-Type = biological target: T1, Calcium Channel N-Type (Rattus norvegicus, UniProt Q02294)
T1 construct: purchased MDS Pharma Services Taiwan

Nicotinic Acetylcholine = test system: Nicotinic Acetylcholine; set-up: species or system human
Endothelin ETA = biological target: T2, Endothelin ETA (Homo sapiens, UniProt P25101)
T2 construct: purchased MDS Pharma Services Taiwan
T2 sequence (P25101 21-427): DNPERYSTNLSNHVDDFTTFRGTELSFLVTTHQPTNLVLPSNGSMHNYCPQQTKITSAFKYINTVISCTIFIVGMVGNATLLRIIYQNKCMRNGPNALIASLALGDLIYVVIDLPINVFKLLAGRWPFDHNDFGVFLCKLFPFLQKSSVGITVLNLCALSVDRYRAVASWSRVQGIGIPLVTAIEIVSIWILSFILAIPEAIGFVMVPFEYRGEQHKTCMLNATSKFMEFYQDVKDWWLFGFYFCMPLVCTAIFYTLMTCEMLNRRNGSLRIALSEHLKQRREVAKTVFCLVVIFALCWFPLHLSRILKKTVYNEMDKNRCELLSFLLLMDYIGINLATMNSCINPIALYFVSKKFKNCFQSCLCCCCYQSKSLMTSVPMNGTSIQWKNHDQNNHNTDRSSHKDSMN

T1 sequence (Q02294 whole entry): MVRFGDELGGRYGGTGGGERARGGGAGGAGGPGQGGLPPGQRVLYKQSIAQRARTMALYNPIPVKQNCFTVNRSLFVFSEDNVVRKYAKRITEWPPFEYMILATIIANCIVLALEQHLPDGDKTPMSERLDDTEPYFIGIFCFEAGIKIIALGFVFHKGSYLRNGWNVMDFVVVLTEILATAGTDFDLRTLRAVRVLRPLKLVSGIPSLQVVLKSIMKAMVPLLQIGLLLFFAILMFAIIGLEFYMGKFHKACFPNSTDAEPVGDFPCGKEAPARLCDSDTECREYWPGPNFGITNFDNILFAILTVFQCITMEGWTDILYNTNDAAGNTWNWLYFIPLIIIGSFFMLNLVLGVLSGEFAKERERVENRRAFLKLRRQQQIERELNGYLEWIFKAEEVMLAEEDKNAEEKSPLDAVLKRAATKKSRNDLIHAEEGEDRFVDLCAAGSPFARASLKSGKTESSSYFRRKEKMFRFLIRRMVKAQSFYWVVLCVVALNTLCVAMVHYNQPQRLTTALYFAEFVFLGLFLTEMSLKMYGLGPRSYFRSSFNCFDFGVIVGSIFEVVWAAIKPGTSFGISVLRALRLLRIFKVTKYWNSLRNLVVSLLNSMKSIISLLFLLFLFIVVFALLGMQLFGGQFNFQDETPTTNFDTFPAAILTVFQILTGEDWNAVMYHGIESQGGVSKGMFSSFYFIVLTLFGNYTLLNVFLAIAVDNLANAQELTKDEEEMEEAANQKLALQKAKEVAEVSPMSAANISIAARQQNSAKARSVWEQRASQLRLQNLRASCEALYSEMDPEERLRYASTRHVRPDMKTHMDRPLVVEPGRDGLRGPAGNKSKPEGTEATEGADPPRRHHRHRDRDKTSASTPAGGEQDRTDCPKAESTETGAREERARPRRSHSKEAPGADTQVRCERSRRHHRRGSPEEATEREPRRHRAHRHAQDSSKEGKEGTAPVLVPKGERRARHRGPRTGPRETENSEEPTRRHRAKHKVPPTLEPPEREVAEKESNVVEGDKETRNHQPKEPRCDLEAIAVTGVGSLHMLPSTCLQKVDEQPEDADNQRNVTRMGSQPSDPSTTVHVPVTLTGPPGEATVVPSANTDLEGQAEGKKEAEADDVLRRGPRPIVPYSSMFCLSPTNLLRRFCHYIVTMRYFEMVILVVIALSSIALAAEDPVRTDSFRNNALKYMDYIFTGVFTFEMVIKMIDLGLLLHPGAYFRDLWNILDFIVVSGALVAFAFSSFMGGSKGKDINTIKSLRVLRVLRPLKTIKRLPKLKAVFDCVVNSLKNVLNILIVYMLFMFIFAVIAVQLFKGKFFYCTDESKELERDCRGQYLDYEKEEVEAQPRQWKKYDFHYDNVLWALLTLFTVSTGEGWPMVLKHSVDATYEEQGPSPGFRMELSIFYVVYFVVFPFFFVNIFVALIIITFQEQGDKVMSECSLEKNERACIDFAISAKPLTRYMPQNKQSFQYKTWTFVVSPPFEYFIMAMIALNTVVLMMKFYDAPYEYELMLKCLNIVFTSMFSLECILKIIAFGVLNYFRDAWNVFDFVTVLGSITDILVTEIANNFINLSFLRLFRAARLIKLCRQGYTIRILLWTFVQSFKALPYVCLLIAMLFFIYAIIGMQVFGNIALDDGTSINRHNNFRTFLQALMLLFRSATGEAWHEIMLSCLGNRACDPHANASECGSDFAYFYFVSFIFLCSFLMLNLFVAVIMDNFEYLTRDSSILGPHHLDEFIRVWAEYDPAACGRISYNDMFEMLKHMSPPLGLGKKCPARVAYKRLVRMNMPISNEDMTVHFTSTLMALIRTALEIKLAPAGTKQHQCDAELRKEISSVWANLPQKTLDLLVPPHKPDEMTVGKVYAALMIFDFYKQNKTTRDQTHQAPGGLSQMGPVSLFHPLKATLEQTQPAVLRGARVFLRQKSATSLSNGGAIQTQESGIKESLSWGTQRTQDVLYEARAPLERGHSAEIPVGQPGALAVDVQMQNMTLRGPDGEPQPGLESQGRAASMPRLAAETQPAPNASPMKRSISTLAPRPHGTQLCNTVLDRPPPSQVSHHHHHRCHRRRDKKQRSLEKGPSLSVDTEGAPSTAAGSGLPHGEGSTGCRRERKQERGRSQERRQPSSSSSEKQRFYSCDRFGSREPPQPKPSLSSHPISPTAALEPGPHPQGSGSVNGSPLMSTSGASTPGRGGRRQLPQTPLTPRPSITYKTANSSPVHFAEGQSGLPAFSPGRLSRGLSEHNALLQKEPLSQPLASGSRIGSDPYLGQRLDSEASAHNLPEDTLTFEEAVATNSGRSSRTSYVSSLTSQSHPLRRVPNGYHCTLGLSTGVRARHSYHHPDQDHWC

OC[C@H]1O[C@@H](n2cnc3c(NCc4ccc(O)cc4)ncnc32)[C@H](O)[C@@H]1O [T1-11, N ^6-(4-hydroxybenzyl)adenine riboside]
inhibition at 10 µM (Calcium Channel N-Type): 1% | % Inhibition (Nicotinic Acetylcholine): 6% | inhibition at 10 µM (Endothelin ETA): 3%
